pIC50: −log10 of the molar value. Entries after “also recorded” stand apart in the source; their conditions may differ.
Legend:
[1] = Blood pressure safety test in rats after two weeks of oral administration; type: in vivo; details: measured the day after final administration
Source text: The present inventors have been studying Angelica gigas Nakai for many years while observing the effect of Angelica gigas Nakai extract on blood pressure. In general, Angelica gigas Nakai is a traditional herb that has been used for food and medicine for a long time because of its excellent hematopoietic, anticancer, antioxidant, and anti-inflammatory actions. However, direct use of the Angelica gigas extract has the problem of inducing high blood pressure according to the preparation thereof. In this Example, the Angelica extracts obtained in Examples 1-1 and 1-2 and 99.9% pure decursinol of the present disclosure were administered to rats and assayed for safety for blood pressure.
Using a blood pressure analyzer (3R229 3 channel rat system, Life Science), rats were measured for blood pressure while being acclimated to blood measurement operation. When the blood pressure analyzer is being operated, laboratory rats are startled by the sound of air pressure and rise in blood pressure. In order to eliminate this effect, after adaptation by repeatedly measuring 5 times a day, the experiment was performed when the blood pressure was kept stable, and the blood pressure was regularly measured every day even during the experiment to adapt the rats to the analyzer. When measuring blood pressure, the head was covered with a handkerchief to block light for stabilization. Fifteen experimental rats were divided into 5 groups of 3 rats for the next administration experiment and measured for blood pressure. A control (physiological saline), the Angelica extracts, and decursinol were each orally administered for two weeks, and the blood pressures measured the next day after the final administration are given in Table 1.

[2] = system: vascular smooth muscle cell line A10; assay: Cytotoxicity of decursinol, live and dead cell count; type: cell-based; details: live and dead cells counted
Source text: In order to examine the cytotoxicity of decursinol, both live and dead cells were counted. After treatment with decursinol, 98% or more of live cells were observed alive.

[3] = system: vascular smooth muscle cell line A10; assay: Effect of decursinol on high sugar-induced proliferation of A10 cells (cell count); type: cell-based
Description: The effect of decursinol on the high sugar-induced proliferation of A10 cells was investigated. […] Then, each well was treated with 25 μM of solubilized decursinol, and the cells were counted after 1, 2, and 3 days. The results are depicted in FIG. 4.

[4] = system: vascular smooth cell line A10; details: rat
Description: (§1) The vascular smooth cell line A10 was loaded at a density of 1×10^3 cells/ml into 96-well plates and after 16 hours, the medium was replaced with a medium having a concentration of 5.5 mM or 30 mM D-glucose. Subsequently, decursin, decursinol angelate and decursinol were each applied at concentrations of 0, 20, 50, 100, 200, and 500 μM to the cells. IC50, a concentration at which the growth of the cells is inhibited by 50%, and EC100, a concentration which inhibits the growth of cells in a high sugar level environment to a normal cell population, were measured, and therapeutic indices were calculated by dividing IC50 by EC100. […] Then, effects of decursin and decursinol angelate to inhibit the proliferation of A10 cells in high glucose were expressed as EC100. EC100 refers to the concentration at which high glucose-induced proliferation of A10 cells is inhibited to normal glucose levels by the drug.

in vitro = details: rat, IC50, concentration at which the growth of the cells is inhibited by 50% (cytotoxicity)
Description: as §1

[5] = system: phospho-protein kinase C (p-PKC); assay: Western blotting of phospho-PKC with a pan-phospho-PKC antibody in A10 cells; type: cell-based; details: 30 mM D-glucose, 10 and 25 μM solubilized decursinol, 24 hours
Description: Examination was made to see whether the inhibitory effect of decursinol on high sugar-induced proliferation of A10 cells was associated with PKC. […] Then, each well was treated with 10 and 25 μM of solubilized decursinol and incubated for 24 hours. Western blotting was carried out using a pan-phospho-PKC antibody and the results are depicted in FIG. 5.

[6] = system: vascular smooth cell line A10; assay: Inhibition of high glucose-induced proliferation of A10 cells (EC100); type: cell-based; details: 30 mM D-glucose, 0-500 μM
Description: as §1

[7] = Cytotoxicity (IC50) on A10 cells; details: rat, A10 vascular smooth muscle cells, IC50, concentration at which the growth of the cells is inhibited by 50% (cytotoxicity), 0-500 μM, cytotoxicity under normal glucose conditions
Description: as §1

SMILES	Diastolic blood pressure ([1]; 0.5 mg/kg) [mmHg]	Systolic blood pressure ([1]; 0.5 mg/kg) [mmHg]	Diastolic blood pressure ([1]; 1.0 mg/kg) [mmHg]	Systolic blood pressure ([1]; 1.0 mg/kg) [mmHg]	Diastolic blood pressure ([1]; 2.0 mg/kg) [mmHg]	Systolic blood pressure ([1]; 2.0 mg/kg) [mmHg]	Diastolic blood pressure ([1]; 5.0 mg/kg) [mmHg]	Systolic blood pressure ([1]; 5.0 mg/kg) [mmHg]	Live cells after treatment with decursinol [2] [%]	Effect on proliferation of A10 cells at normal sugar concentration ([3]; 5.5 mM D-glucose, 25 μM solubilized decursinol, days 1-3)	Effect on proliferation of A10 cells in high glucose ([3]; 30 mM D-glucose)	Inhibition of proliferation of A10 cells in high glucose ([3]; 30 mM D-glucose, 25 μM solubilized decursinol, day 3)	pIC50 [4]	pIC50 (in vitro)	Expression level of phospho-PKC in high sugar [5]	EC100, concentration at which high glucose-induced proliferation of A10 cells is inhibited to normal glucose levels [6] [µM]	pIC50 [7]
CC1(C)Oc2cc3oc(=O)ccc3cc2C[C@@H]1O [Decursinol, decursinol]	91	110	92	110	92	117	90	115	≥ 98	did not significantly inhibit; also recorded: not affected	significantly inhibited; also recorded: inhibited cell proliferation in a dose-dependent manner	about 20%	< 3.30	≤ 3.30	significantly decreased the increased expression level of phospho-PKC in high sugar in a dose-dependent manner	10.1	–
C/C=C(/C)C(=O)O[C@H]1Cc2cc3ccc(=O)oc3cc2OC1(C)C [Decursinol angelate, decursinol angelate]	–	–	–	–	–	–	–	–	–	–	–	–	–	–	–	4.4	3.91
CC(C)=CC(=O)O[C@H]1Cc2cc3ccc(=O)oc3cc2OC1(C)C [Decursin, decursin]	–	–	–	–	–	–	–	–	–	–	–	–	–	4.08	–	7.2	–

From US20240139151A1, “COMPOSITION INCLUDING DECURSINOL AS ACTIVE INGREDIENT FOR PREVENTING OR TREATING SMOOTH MUSCLE CELL PROLIFERATIVE DISEASES” (KYUNGSUNG UNIVERSITY INDUSTRY COOPERATION FOUNDATION, priority 2021, published 2024)
